Results published in ChEMBL document CHEMBL4417623, “Methods and compositions for inhibiting rho/mrtf-mediated diseases and conditions” (2015).
The source made the active and inactive calls. The rule behind the calls is not given here.

Assays:
[1] = Inhibition of Rho/MRTF/SRF mediated signaling (unknown origin) assessed as reduction in MRTF/SRF-regulated gene transcription by SRE-luciferase expression based assay; set-up: species or system Homo sapiens
[2] = Inhibition of Rho/MRTF/SRF mediated signaling (unknown origin) assessed as reduction in MRTF/SRF-regulated gene transcription by SRE-luciferase expression based assay relative to control; set-up: species or system Homo sapiens
Mus musculus [3] = organism: Mus musculus; assay: Inhibition of Rho/MRTF/SRF mediated signaling in mouse NIH/3T3 cells assessed as inhibition of fibrosis markers by measuring reduction in LPA-induced COL1A2-hn mRNA expression by qRT-PCR assay relative to perfenidone; assay type: cell-based
Mus musculus [4] = organism: Mus musculus; assay: Inhibition of Rho/MRTF/SRF mediated signaling in mouse NIH/3T3 cells assessed as inhibition of fibrosis markers by measuring reduction in LPA-induced ACTA2 mRNA expression by qRT-PCR assay relative to perfenidone; assay type: cell-based
Homo sapiens = organism: Homo sapiens; assay: Inhibition of Rho/MRTF/SRF mediated signaling in human dermal fibroblasts assessed as suppression of myofibroblast activation by measuring reduction in TGFbeta-induced alpha-SMA expression incubated for 3 days relative to perfenidone
Mus musculus [5] = assay: Suppression of fibrosis in C57bl/6 mouse model of bleomycin-induced dermal fibrosis at 100 mg/kg, bid dosed via oral gavage; assay type: functional, organism-based

Row | Compound | IC50 [1] [nM] | further results
1 | COc1cccc(-c2nnc(SCCC(=O)O)o2)c1 | 3600 | –
2 | CC(ONC(=O)c1cc(C(F)(F)F)cc(C(F)(F)F)c1)C(=O)Nc1ccc(Cl)cc1 (stereo unspecified) | – | IC50 [2]: 1000 nM
3 | O=C(O)CCSc1nnc(-c2cccc(Cl)c2)o1 | 1500 | –
4 | O=C(O)CCSc1nnc(-c2ccccc2)o1 | 3500 | –
5 | O=C(Nc1ccc(Cl)cc1)C1CCCN(C(=O)c2cccc(-c3ccco3)c2)C1 (stereo unspecified) | – | fold change (FC) (Mus musculus [3]): 100; fold change (FC) (Mus musculus [4]): 100; fold change (FC) (Homo sapiens): 100; Activity (Mus musculus [5]): Active

More lines, main results first:

Row | IC50 [1] [nM] | Compound | further results
6 | 1.8 | O=C(O)CCCSc1nnc(-c2ccc(Cl)cc2Cl)o1 | –
7 | 2.6 | COc1ccc(-c2nnc(SCCC(=O)O)o2)c(Cl)c1 | –
8 | 1.5 | Cc1ccc(-c2nnc(SCCC(=O)O)o2)c(Cl)c1 | –
9 | 160 | COc1ccc(-c2nnc(SCCC(=O)O)o2)cc1 | –
10 | 180 | Cc1cccc(-c2nnc(SCCC(=O)O)o2)c1 | –
11 | 2.6 | CCOC(=O)CCSc1nnc(-c2ccc(Cl)cc2Cl)o1 | –
12 | 340 | O=C(O)CCSc1nnc(-c2ccc(Cl)cc2)o1 | –
13 | 34 | Cc1ccc(-c2nnc(SCCC(=O)O)o2)cc1 | –
